According to patent US12091411B2, “IRAK degraders and uses thereof” (Kymera Therapeutics, Inc., priority 2022, dated 2024):
Like-named read-outs stand apart in the source and are kept apart here.

Target: T1, IRAK4 (Homo sapiens, UniProt Q9NWZ3)
T1 construct: Degradation of IRAK4 in OCI-LY10 was quantitatively measured using Meso Scale Discovery technology; endogenous in cells; host or cells: OCI-LY10
T1 sequence (Q9NWZ3 1-460): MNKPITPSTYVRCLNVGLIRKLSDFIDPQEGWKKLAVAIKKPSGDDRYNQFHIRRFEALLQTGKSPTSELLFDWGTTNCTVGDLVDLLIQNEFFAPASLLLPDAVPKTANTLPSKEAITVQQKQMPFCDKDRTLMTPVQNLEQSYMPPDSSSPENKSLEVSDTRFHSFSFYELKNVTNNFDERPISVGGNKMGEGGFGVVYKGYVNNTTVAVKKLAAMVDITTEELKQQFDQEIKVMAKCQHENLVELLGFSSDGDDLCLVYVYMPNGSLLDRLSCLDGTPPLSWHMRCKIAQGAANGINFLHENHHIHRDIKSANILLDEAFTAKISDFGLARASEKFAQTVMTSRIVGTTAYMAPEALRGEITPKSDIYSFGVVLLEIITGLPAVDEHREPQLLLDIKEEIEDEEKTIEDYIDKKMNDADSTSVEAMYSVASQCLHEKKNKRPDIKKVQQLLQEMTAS
Test: IRAK4 MSD Degradation in OCI-LY10
Type: cell-based
Conditions: OCI-LY10 cells, MSD
How it was run: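 DC50, from a three-parameter logistic fit and reported as letter bins A (<0.01 μM), B, C, D (>0.2 μM or not tested), reflects IRAK4 loss measured by MSD electrochemiluminescence in OCI-LY10 lysates. Treatment: 8 doses, 1:3 steps, top 1 to 10 μM, 4 to 24 h, 37 °C.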

[1] = 4 hrs incubation, read-out: IRAK4 degradation in OCI-LY10 at 4 hrs: DC50
[2] = 24 hrs incubation, read-out: IRAK4 degradation in OCI-LY10 at 24 hrs: DC50

SMILES | DC50 [1] | DC50 [2]
CC1CN(c2ccn3ncc(C(=O)Nc4cn([C@H]5CC[C@H](CN6CCN(CC#Cc7cccc8c7n(C)c(=O)n8C7CCC(=O)NC7=O)CC6)CC5)nc4C(F)F)c3n2)CCO1 (stereo partly drawn) [I-288] | > 0.2 µM | > 0.2 µM
CN(C1CCN(c2cccc3c2n(C)c(=O)n3C2CCC(=O)NC2=O)CC1)[C@@H](C#N)[C@H]1CC[C@H](n2cc(NC(=O)c3cnn4cccnc34)c(C(F)F)n2)CC1 (stereo partly drawn) [I-242] | > 0.2 µM | > 0.2 µM
CC(C)(O)c1cc2nn([C@H]3CC[C@H](CNCCCNc4cccc5c4C(=O)N(C4CCC(=O)NC4=O)C5=O)CC3)cc2cc1NC(=O)c1cccc(C(F)(F)F)n1 (stereo partly drawn) [I-146] | > 0.2 µM | 0.01 to 0.1 µM
Cn1c(=O)n(C2CCC(=O)NC2=O)c2cccc(C#CCN3CCN(C[C@H]4CC[C@H](n5cc(NC(=O)c6cccc(C#N)n6)c(C(F)F)n5)CC4)CC3)c21 (stereo partly drawn) [I-261] | > 0.2 µM | > 0.2 µM
Cn1c(=O)n(C2CCC(=O)NC2=O)c2cccc(C3CCN(C[C@H]4CC[C@H](n5cc6cc(NC(=O)c7cccc(C#N)n7)ncc6n5)CC4)CC3(F)F)c21 (stereo partly drawn) [I-615] | > 0.2 µM | < 0.01 µM
Cn1c(=O)n(C2CCC(=O)NC2=O)c2cccc(C#CCN3CCN(C[C@H]4CC[C@H](n5cc(NC(=O)c6cnn7ccc(N8CCCC8)nc67)c(C(F)F)n5)CC4)CC3)c21 (stereo partly drawn) [I-103] | < 0.01 µM | > 0.2 µM
COc1cc2nn([C@H]3CC[C@H](CN4CCC5(CC4)CCN(c4cccc6c4n(C)c(=O)n6C4CCC(=O)NC4=O)CC5)CC3)cc2cc1NC(=O)c1cncc(SC(F)(F)F)c1 (stereo partly drawn) [I-152] | > 0.2 µM | > 0.2 µM
Cn1c(=O)n(C2CCC(=O)NC2=O)c2cccc(C3CN(C[C@H]4CC[C@H](n5cc6cc(NC(=O)c7cccc(C(F)(F)F)n7)ncc6n5)CC4)C3)c21 (stereo partly drawn) [I-610] | > 0.2 µM | > 0.2 µM
Cn1c(=O)n(C2CCC(=O)NC2=O)c2cccc(N3CC(O[C@@H]4CCN(C[C@H]5CC[C@H](n6cc(NC(=O)c7cnn8ccc(N9C[C@H]%10C[C@@H]9CO%10)nc78)c(C(F)F)n6)CC5)C[C@H]4F)C3)c21 (stereo partly drawn) [I-732] | > 0.2 µM | < 0.01 µM
COc1nn([C@H]2CC[C@H](CN3CC4CC3CN4c3cccc4c3n(C)c(=O)n4C3CCC(=O)NC3=O)CC2)cc1NC(=O)c1cnn2cc(N(C)C)cnc12 (stereo partly drawn) [I-214] | > 0.2 µM | > 0.2 µM
Cn1c(=O)n(C2CCC(=O)NC2=O)c2cccc(C#CCO[C@H]3CCN(C[C@H]4CC[C@H](n5cc(NC(=O)c6cnn7ccc(N8C[C@H]9C[C@@H]8CO9)nc67)c(C(F)F)n5)CC4)C[C@H]3F)c21 (stereo partly drawn) [I-36] | 0.01 to 0.1 µM | > 0.2 µM
Cn1c(=O)n(C2CCC(=O)NC2=O)c2cccc(C#CC3CCN(C[C@H]4CC[C@H](n5cc(NC(=O)c6cnn7ccc(N8C[C@H]9C[C@@H]8CO9)nc67)c(C(F)F)n5)CC4)CC3)c21 (stereo partly drawn) [I-40] | < 0.01 µM | > 0.2 µM
Cc1cccc(C(=O)Nc2cc3cn([C@H]4CC[C@H](CN5CC[C@H](c6cccc7c6n(C)c(=O)n7C6CCC(=O)NC6=O)[C@@H](F)C5)CC4)nc3cn2)n1 (stereo partly drawn) [I-634] | > 0.2 µM | > 0.2 µM
Cn1c(=O)n(C2CCC(=O)NC2=O)c2cccc([C@H]3C[C@@H](CN4CCN(C[C@H]5CC[C@H](n6cc(NC(=O)c7cnn8ccc(N9C[C@H]%10CC9CO%10)nc78)c(C(F)F)n6)CC5)CC4)C3)c21 (stereo partly drawn) [I-78] | < 0.01 µM | > 0.2 µM
Cn1c(=O)n(C2CCC(=O)NC2=O)c2cccc(C#CCOC3CCN(C[C@H]4CC[C@H](n5cc(NC(=O)c6cnn7ccc(C8COCCN8)nc67)c(C(F)F)n5)CC4)CC3)c21 (stereo partly drawn) [I-310] | > 0.2 µM | > 0.2 µM
O=C1CCC(c2cncc3c(C#CCN4CCN(C[C@H]5CC[C@@H](n6cc(NC(=O)c7cnn8ccc(N9C[C@H]%10C[C@@H]9CO%10)nc78)c(C(F)F)n6)CC5)CC4)cccc23)C(=O)N1 (stereo partly drawn) [I-251] | > 0.2 µM | > 0.2 µM
O=C1CCC(c2cc(C#CCN3CCN(C[C@H]4CC[C@@H](n5cc(NC(=O)c6cnn7ccc(N8C[C@H]9C[C@@H]8CO9)nc67)c(C(F)F)n5)CC4)CC3)ccc2Cl)C(=O)N1 (stereo partly drawn) [I-259] | > 0.2 µM | > 0.2 µM
[2H]C([2H])([2H])Oc1ccc2c(c1C1CCN(C[C@H]3CC[C@H](n4cc5cc(NC(=O)c6cccc(C(F)(F)F)n6)ncc5n4)CC3)CC1)n(C([2H])([2H])[2H])c(=O)n2C1CCC(=O)NC1=O (stereo partly drawn) [I-432] | > 0.2 µM | < 0.01 µM
